Experimental data reported in publication PMC12380353, “MK-8527 is a novel inhibitor of HIV-1 reverse transcriptase translocation with potential for extended-duration dosing” (PLOS Biology, 2025).

Columns and labels:
[1] = test system: panel of unrelated viruses; settings: all other viruses of the panel, up to highest concentration tested, 50 µM
[2] = CellTiter-Glo (CTG) cytotoxicity in MT4-GFP cells; settings: human
[3] = PK in rats; format: in vivo; settings: male, Wistar Hannover, plasma, rat
Procedure: All animal procedures were conducted according to the highest ethical standards using procedures approved by the Institutional Animal Care and Use Committee of Merck & Co., Rahway, NJ, USA (APS 2016-600774-FEB). Fasted male Wistar Hannover rats (n = 3 in each arm) weighing approximately 325 g were used for the PK studies. All blood samples were collected in EDTA-coated tubes at the time points specified below. For the IV arm of the study, a cannula was implanted in the jugular vein for dose administration and blood sampling. […] For the oral arm of the study, a solution of MK-8527 was administered by oral gavage at 2 mg/kg in 0.5% methylcellulose in water to fasted rats. […] The concentrations of MK-8527 in plasma were determined by LC–MS/MS assays following a protein precipitation step. Aliquots (50 µL) of plasma were precipitated by addition of 150 µL of acetonitrile solution-containing internal standard (IS), followed by centrifugation at 3,000 rpm for 10 min. A 75-µL aliquot of the supernatant was transferred into a 96-well plate, and 5 µL of each sample was used for analysis. LC–MS/MS analysis was performed on a Transcend LC system with HTS PAL CTC autosampler (Thermo Fisher Scientific, Waltham, MA, USA) interfaced to an API-5000 mass spectrometer using the turbo ion spray interface (Sciex, Framingham, MA, USA). Separation of MK-8527 was achieved on an Xselect HSS XP T3 column (50 × 2.1 mm, 2.5 µm; […] The chromatography for plasma samples was run using gradient elution as follows: the column was equilibrated with 100% A. […] The total run time was 4.15 min. Quantification was done by monitoring the transition of m/z 309 to m/z 169 or 133 for MK-8527. The method was linear across a concentration range of 2–10,000 ng/mL in plasma.

[4] = biological target: human DNA polymerase β (Homo sapiens, UniProt P06746); test: Human DNA polymerase β inhibition assay; format: biochemical; settings: highest concentration tested 200 µM
Procedure: The activities of human DNA polymerases α, β, and γ were measured in radiolabeled nucleotide incorporation assays. TP was prepared as a 10-point titration with 3-fold serial dilution in water. Reaction buffers for the DNA polymerase α and β assays both contained 20 mM Tris pH 7.5, 10 mM MgCl2, 50 μM EDTA, 200 μg/mL bovine serum albumin (BSA), 2 mM dithiothreitol (DTT), 1.6 μM each of dNTP (dATP, dCTP, dGTP, and dTTP), 20 μCi/mL [α33P]dATP, 0.1 mg/mL gapped activated fish sperm DNA template, test compound, and 0.005 U/μL DNA polymerase α or 0.0025 U/μL DNA polymerase β. The reaction buffer for DNA polymerase γ contained 20 mM Tris pH 8, 10 mM MgCl2, 50 mM KCl, 100 μg/mL BSA, 2 mM β-mercaptoethanol, 10 μM of each dNTP (dATP, dCTP, dGTP, and dTTP), 20 μCi/mL [α33P]dATP, 0.04 mg/mL gapped activated fish sperm DNA template, test compound, and 0.0003 μg/μL DNA polymerase γ. The 50-μL reactions were incubated at room temperature for 30 min (for β and γ) or 90 min (for α) before terminating with the addition of 50 μL 500 mM EDTA. The reaction mixtures were transferred to a Millipore DE81 filter plate (EMD Millipore; Hayward, CA), washed with 0.5 M sodium phosphate pH 7.0, and dried. After addition of 40 μL scintillant to each well, the incorporation of labeled dATP was determined with a microplate counter (TopCount NXT HTS; PerkinElmer, Shelton, CA, USA).

[5] = biological target: T1, HIV RT (Human immunodeficiency virus type 1 group M subtype B, UniProt P04585); test: HIV-RT primer extension assay (chain termination); format: biochemical; settings: 1 µM each dNTP
T1 construct: HIV RT (final concentration, 1,200 nM)
Procedure: The reaction protocol was adapted from previous work. Primers and template used for this assay are described in Fig 8A.
All reagent stocks were in a base assay buffer consisting of 50 mM Tris pH 7.5 and 50 mM NaCl in nuclease-free water. […] Samples were then heated to 95 °C for 10 min prior to storage at −20 °C until being resolved by polyacrylamide gel electrophoresis with 7 M urea.

Row | Compound | Antiviral activity or cytotoxicity [1] | CC50 [2] [µM] | clearance ([3]; IV 1.0 mg/kg, read-out: CLp) [mL/min/kg] | Vd ([3]; IV 1.0 mg/kg, read-out: Vdss) [L/kg] | bioavailability ([3]; oral 2 mg/kg) [%] | half-life ([3]; IV 1.0 mg/kg, read-out: t½ (converted)) [min] | Inhibitory activity [4] | Chain termination mechanism (ICT/DCT) [5]
1 | C#C[C@]1(CO)O[C@@H](n2ccc3c(N)nc(Cl)nc32)C[C@@H]1O [Compound 12, (2R,3S,5R)-5-(4-amino-2-chloro-7H-pyrrolo[2,3-d]pyrimidin-7-yl)-2-ethynyl-2-(hydroxymethyl)tetrahydrofuran-3-ol] | did not display antiviral activity or cytotoxicity | > 42 | 18.1 ± 3.3 | 2 ± 0.3 | 57 | 138 ± 78 |  | 
2 | C#C[C@]1(COP(=O)(O)OP(=O)(O)OP(=O)(O)O)O[C@@H](n2ccc3c(N)nc(Cl)nc32)C[C@@H]1O [MK-8527-TP] |  |  |  |  |  |  | no inhibitory activity | both ICT and DCT occurred
